Reference: PubChem BioAssay (NCI)
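Method: 48-hour compound exposure of cells in 96-well plates, five concentrations, linear interpolation of endpoints. TGI: total growth inhibition.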

Columns and labels:
Test in all cases: inhibition of tumour cell growth, NCI panel, 48 h
786-0 renal = tested on: 786-0 renal
A498 renal = tested on: A498 renal
A549 NSCLC = tested on: A549 NSCLC
ACHN renal = tested on: ACHN renal
CAKI-1 renal = tested on: CAKI-1 renal
CCRF-CEM leukemia = tested on: CCRF-CEM leukemia
COLO 205 colon = tested on: COLO 205 colon
DLD-1 colon = tested on: DLD-1 colon
DMS 273 small cell lung = tested on: DMS 273 small cell lung
EKVX NSCLC = tested on: EKVX NSCLC
HCC-2998 colon = tested on: HCC-2998 colon
HCT-116 colon = tested on: HCT-116 colon
HL-60(TB) leukemia = tested on: HL-60(TB) leukemia
HOP-18 NSCLC = tested on: HOP-18 NSCLC
HOP-62 NSCLC = tested on: HOP-62 NSCLC
HT29 colon = tested on: HT29 colon
IGROV1 ovarian = tested on: IGROV1 ovarian
K-562 leukemia = tested on: K-562 leukemia
KM12 colon = tested on: KM12 colon
KM20L2 colon = tested on: KM20L2 colon
LOX IMVI melanoma = tested on: LOX IMVI melanoma
LXFL 529 NSCLC = tested on: LXFL 529 NSCLC
M14 melanoma = tested on: M14 melanoma
MALME-3M melanoma = tested on: MALME-3M melanoma
MOLT-4 leukemia = tested on: MOLT-4 leukemia
NCI-H226 lung = tested on: NCI-H226 lung
NCI-H23 lung = tested on: NCI-H23 lung
NCI-H460 lung = tested on: NCI-H460 lung
NCI-H522 lung = tested on: NCI-H522 lung
OVCAR-3 ovarian = tested on: OVCAR-3 ovarian
OVCAR-4 ovarian = tested on: OVCAR-4 ovarian
OVCAR-5 ovarian = tested on: OVCAR-5 ovarian
OVCAR-8 ovarian = tested on: OVCAR-8 ovarian
RXF 393 renal = tested on: RXF 393 renal
RXF-631 renal = tested on: RXF-631 renal
SF-268 CNS = tested on: SF-268 CNS
SF-295 CNS = tested on: SF-295 CNS
SK-MEL-2 melanoma = tested on: SK-MEL-2 melanoma
SK-MEL-28 melanoma = tested on: SK-MEL-28 melanoma
SK-MEL-5 melanoma = tested on: SK-MEL-5 melanoma
SN12C renal = tested on: SN12C renal
SNB-19 CNS = tested on: SNB-19 CNS
SNB-75 CNS = tested on: SNB-75 CNS
SNB-78 CNS = tested on: SNB-78 CNS
SR leukemia = tested on: SR leukemia
SW-620 colon = tested on: SW-620 colon
TK-10 renal = tested on: TK-10 renal
U251 CNS = tested on: U251 CNS
UACC-257 melanoma = tested on: UACC-257 melanoma
UACC-62 melanoma = tested on: UACC-62 melanoma
UO-31 renal = tested on: UO-31 renal
XF 498 CNS = tested on: XF 498 CNS
DMS 114 small cell lung = tested on: DMS 114 small cell lung
M19-MEL melanoma = tested on: M19-MEL melanoma
RPMI-8226 leukemia = tested on: RPMI-8226 leukemia
SF-539 CNS = tested on: SF-539 CNS
SK-OV-3 ovarian = tested on: SK-OV-3 ovarian

Cc1ccc(/C=C/C(=O)c2ccc(Cl)c(Cl)c2)cc1
TGI (786-0 renal): > 100 µM | TGI (A498 renal): > 100 µM | TGI (A549 NSCLC): > 100 µM | TGI (ACHN renal): > 100 µM | TGI (CAKI-1 renal): > 100 µM | TGI (CCRF-CEM leukemia): > 100 µM | TGI (COLO 205 colon): > 100 µM | TGI (DLD-1 colon): > 100 µM | TGI (DMS 273 small cell lung): > 100 µM | TGI (EKVX NSCLC): > 100 µM | TGI (HCC-2998 colon): > 100 µM | TGI (HCT-116 colon): > 100 µM | TGI (HL-60(TB) leukemia): > 100 µM | TGI (HOP-18 NSCLC): > 100 µM | TGI (HOP-62 NSCLC): > 100 µM | TGI (HT29 colon): > 100 µM | TGI (IGROV1 ovarian): > 100 µM | TGI (K-562 leukemia): > 100 µM | TGI (KM12 colon): > 100 µM | TGI (KM20L2 colon): > 100 µM | TGI (LOX IMVI melanoma): > 100 µM | TGI (LXFL 529 NSCLC): > 100 µM | TGI (M14 melanoma): > 100 µM | TGI (MALME-3M melanoma): > 100 µM | TGI (MOLT-4 leukemia): > 100 µM | TGI (NCI-H226 lung): > 100 µM | TGI (NCI-H23 lung): > 100 µM | TGI (NCI-H460 lung): > 100 µM | TGI (NCI-H522 lung): > 100 µM | TGI (OVCAR-3 ovarian): > 100 µM | TGI (OVCAR-4 ovarian): > 100 µM | TGI (OVCAR-5 ovarian): > 100 µM | TGI (OVCAR-8 ovarian): > 100 µM | TGI (RXF 393 renal): > 100 µM | TGI (RXF-631 renal): > 100 µM | TGI (SF-268 CNS): > 100 µM | TGI (SF-295 CNS): > 100 µM | TGI (SK-MEL-2 melanoma): > 100 µM | TGI (SK-MEL-28 melanoma): > 100 µM | TGI (SK-MEL-5 melanoma): > 100 µM | TGI (SN12C renal): > 100 µM | TGI (SNB-19 CNS): > 100 µM | TGI (SNB-75 CNS): > 100 µM | TGI (SNB-78 CNS): > 100 µM | TGI (SR leukemia): > 100 µM | TGI (SW-620 colon): > 100 µM | TGI (TK-10 renal): > 100 µM | TGI (U251 CNS): > 100 µM | TGI (UACC-257 melanoma): > 100 µM | TGI (UACC-62 melanoma): > 100 µM | TGI (UO-31 renal): > 100 µM | TGI (XF 498 CNS): > 100 µM

COc1ccc(CC(=O)NCCc2ccc(OC)c(OC)c2OC)cc1
TGI (786-0 renal): > 100 µM | TGI (A498 renal): > 100 µM | TGI (A549 NSCLC): > 100 µM | TGI (ACHN renal): > 100 µM | TGI (CCRF-CEM leukemia): > 100 µM | TGI (DLD-1 colon): > 100 µM | TGI (DMS 114 small cell lung): > 100 µM | TGI (EKVX NSCLC): > 100 µM | TGI (HCC-2998 colon): > 100 µM | TGI (HCT-116 colon): > 100 µM | TGI (HOP-18 NSCLC): > 100 µM | TGI (HOP-62 NSCLC): > 100 µM | TGI (HT29 colon): > 100 µM | TGI (IGROV1 ovarian): > 100 µM | TGI (K-562 leukemia): > 100 µM | TGI (KM12 colon): > 100 µM | TGI (KM20L2 colon): > 100 µM | TGI (LXFL 529 NSCLC): > 100 µM | TGI (M14 melanoma): > 100 µM | TGI (M19-MEL melanoma): > 100 µM | TGI (MALME-3M melanoma): > 100 µM | TGI (MOLT-4 leukemia): > 100 µM | TGI (NCI-H226 lung): > 100 µM | TGI (NCI-H23 lung): > 100 µM | TGI (NCI-H460 lung): > 100 µM | TGI (NCI-H522 lung): > 100 µM | TGI (OVCAR-5 ovarian): > 100 µM | TGI (OVCAR-8 ovarian): > 100 µM | TGI (RPMI-8226 leukemia): > 100 µM | TGI (RXF 393 renal): > 100 µM | TGI (RXF-631 renal): > 100 µM | TGI (SF-268 CNS): > 100 µM | TGI (SF-295 CNS): > 100 µM | TGI (SF-539 CNS): 36.7 µM | TGI (SK-MEL-2 melanoma): > 100 µM | TGI (SK-MEL-28 melanoma): > 100 µM | TGI (SK-MEL-5 melanoma): > 100 µM | TGI (SK-OV-3 ovarian): > 100 µM | TGI (SN12C renal): > 100 µM | TGI (SNB-19 CNS): > 100 µM | TGI (SNB-75 CNS): > 100 µM | TGI (SNB-78 CNS): > 100 µM | TGI (SR leukemia): > 100 µM | TGI (SW-620 colon): > 100 µM | TGI (TK-10 renal): > 100 µM | TGI (U251 CNS): > 100 µM | TGI (UACC-257 melanoma): > 100 µM | TGI (UO-31 renal): > 100 µM | TGI (XF 498 CNS): > 100 µM
